Results on 34 compounds are retold here after patent US9260425B2 (Genetech, Inc., priority 2011, dated 2016).

Structures are written as SMILES.

The target in the assay is Pim-1 (Homo sapiens (Human), UniProt P11309). Nature of the assay: Pim kinase binding activity assay (Example 901), PIM-1 enzyme, Caliper microfluidic peptide phosphorylation. In kind it is biochemical. The settings on record: 20 pM PIM-1, 10 μM ATP, 1 μM FAM-peptide, 90 minutes at room temperature. The method, then: Pim Kinase Binding Activity
Sequence of Pim-1 (P11309 whole entry): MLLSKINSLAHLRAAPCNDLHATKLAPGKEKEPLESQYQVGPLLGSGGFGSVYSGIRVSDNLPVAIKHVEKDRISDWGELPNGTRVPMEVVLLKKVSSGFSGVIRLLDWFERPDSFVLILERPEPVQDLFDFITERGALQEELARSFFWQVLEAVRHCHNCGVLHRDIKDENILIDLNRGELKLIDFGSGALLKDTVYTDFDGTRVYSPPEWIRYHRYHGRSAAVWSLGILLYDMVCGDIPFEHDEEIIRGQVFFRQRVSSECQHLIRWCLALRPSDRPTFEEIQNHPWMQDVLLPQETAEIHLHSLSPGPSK
A fluorescent-labeled Pim-specific peptide substrate, was custom synthesized by American Peptide Company (Sunnyvale, Calif.). Reaction Buffer contained 10 mM HEPES, pH 7.2, 10 mM MgCl2, 0.01% Tween 20, 2 mM DTT. Termination Buffer contained 190 mM HEPES, pH 7.2, 0.015% Brij-35, 0.2% Coating Reagent 3 (Caliper Life Sciences, Hopkinton, Mass.), 20 mM EDTA. Separation Buffer contained 100 mM HEPES, pH 7.2, 0.015% Brij-35, 0.1% Coating Reagent 3, 1:200 Coating Reagent 8 (Caliper Life Sciences, Hopkinton, Mass.), 10 mM EDTA and 5% DMSO.
PIM reactions were carried out in a final volume of 10 μL per well in a 384-well plate. A standard enzymatic reaction, initiated by the addition of 5 μL 2×ATP and test compound to 5 μL of 2× enzyme and FAM-peptide, contained 20 pM PIM-1, 50 pM PIM-2, or 55 pM PIM-3, 1 μM FAM-peptide, and 10 μM ATP, in Reaction Buffer. After 90 minutes of incubation at room temperature, the phosphorylation reaction was stopped by the addition of 10 μL Termination Buffer. The product and substrate in each independent reaction were separated on a 12-sipper microfluidic chip (Caliper Life Sciences, Hopkinton, Mass.) run on a Caliper LC3000® (Caliper Life Sciences, Hopkinton, Mass.). The separation of product and substrate was optimized by choosing voltages and pressure using Caliper's Optimizer software (Hopkinton, Mass.). […] The product and substrate fluorophore were excited at 488 nm and detected at 530 nm. Substrate conversion was calculated from the electropherogram using HTS Well Analyzer software (Caliper Life Sciences, Hopkinton, Mass.). Ki values for the test compound were calculated.
Broadly, the Ki is the equilibrium dissociation constant of an inhibitor or competing ligand from its target. Lower therefore signals a stronger hold on the target. The compound `N[C@H]1CCCN(c2cncc(-c3cc4c(-c5ccccc5F)n[nH]c4cn3)c2)C1` [Example 180, (S)-1-(5-(3-(2-fluorophenyl)-1H-pyrazolo[3,4-c]pyridin-5-yl)pyridin-3-yl)piperidin-3-amine] gave a Ki of 0.264 nM.

Compound `c1cc(-c2n[nH]c3cnc(C4CCCOC4)cc23)nc(N2CCNCC2)c1` (stereo not shown) [Example 181, 3-(6-(piperazin-1-yl)pyridin-2-yl)-5-(tetrahydro-2H-pyran-3-yl)-1H-pyrazolo[3,4-c]pyridine] gave an inhibitory constant (Ki) of 3.96 nM.

`Cn1cc(-c2cc3c(-c4cccc(N5CCC(CN)CC5)n4)n[nH]c3cn2)cn1` [Example 182, (1-(6-(5-(1-methyl-1H-pyrazol-4-yl)-1H-pyrazolo[3,4-c]pyridin-3-yl)pyridin-2-yl)piperidin-4-yl)methanamine] returned an inhibition constant Ki of 0.085 nM.

`Cn1cc(-c2cc3c(-c4cccc(NCC5CCNCC5)n4)n[nH]c3cn2)cn1` [Example 183, 6-(5-(1-methyl-1H-pyrazol-4-yl)-1H-pyrazolo[3,4-c]pyridin-3-yl)-N-(piperidin-4-ylmethyl)pyridin-2-amine] showed a Ki of 0.426 nM.

As for `Cn1cc(-c2cc3c(-c4cccc(-c5cnn(C)c5)n4)n[nH]c3cn2)cn1` [Example 184, 5-(1-methyl-1H-pyrazol-4-yl)-3-(6-(1-methyl-1H-pyrazol-4-yl)pyridin-2-yl)-1H-pyrazolo[3,4-c]pyridine], the affinity corresponds to a Ki of 0.502 nM.

For the compound `c1ccc(-c2n[nH]c3cnc(-c4ccoc4)cc23)cc1` [Example 185, 5-(furan-3-yl)-3-phenyl-1H-pyrazolo[3,4-c]pyridine], affinity was put at a Ki of 70.9 nM.

`c1cncc(-c2cc3c(-c4cnn(CC5CCNCC5)c4)n[nH]c3cn2)c1` [Example 186, 3-(1-(piperidin-4-ylmethyl)-1H-pyrazol-4-yl)-5-(pyridin-3-yl)-1H-pyrazolo[3,4-c]pyridine] displayed a Ki of 0.717 nM.

Take `c1cncc(-c2cc3c(-c4cccc(N5CCCNCC5)n4)n[nH]c3cn2)c1` [Example 187, 3-(6-(1,4-diazepan-1-yl)pyridin-2-yl)-5-(pyridin-3-yl)-1H-pyrazolo[3,4-c]pyridine]: the inhibitory constant (Ki) was determined as 0.015 nM.

As to `Cn1cc(-c2cc3c(-c4cccc(N5CC[C@@H](N)C5)n4)n[nH]c3cn2)cn1` [Example 189, (R)-1-(6-(5-(1-methyl-1H-pyrazol-4-yl)-1H-pyrazolo[3,4-c]pyridin-3-yl)pyridin-2-yl)pyrrolidin-3-amine], the Ki amounted to 0.136 nM.

With `N[C@@H]1CCCN(c2ccc(-c3n[nH]c4cnc(-c5cccnc5)cc34)cn2)C1` [Example 191, (R)-1-(5-(5-(pyridin-3-yl)-1H-pyrazolo[3,4-c]pyridin-3-yl)pyridin-2-yl)piperidin-3-amine], the affinity corresponds to a Ki of 0.404 nM.

Compound `N[C@@H]1CCN(c2cncc(-c3cc4c(-c5ccccc5F)n[nH]c4cn3)c2)C1` [Example 192, (R)-1-(5-(3-(2-fluorophenyl)-1H-pyrazolo[3,4-c]pyridin-5-yl)pyridin-3-yl)pyrrolidin-3-amine] displayed a Ki of 0.511 nM.

`c1cncc(-c2cc3c(-c4cc[nH]n4)n[nH]c3cn2)c1` [Example 193, 3-(1H-pyrazol-3-yl)-5-(pyridin-3-yl)-1H-pyrazolo[3,4-c]pyridine] registered a Ki of 2.63 nM.

For `c1cncc(-c2cc3c(-c4ccncc4)n[nH]c3cn2)c1` [Example 194, 5-(pyridin-3-yl)-3-(pyridin-4-yl)-1H-pyrazolo[3,4-c]pyridine], the inhibition constant (Ki) came to 8.77 nM.

For the compound `Fc1ccccc1-c1n[nH]c2cnc(-c3cnccc3OC3CCNCC3)cc12` [Example 195, 3-(2-fluorophenyl)-5-(4-(piperidin-4-yloxy)pyridin-3-yl)-1H-pyrazolo[3,4-c]pyridine], the Ki is 0.567 nM.

As to `N[C@H]1CCCN(c2ccc(-c3n[nH]c4cnc(-c5cccnc5)cc34)cn2)C1` [Example 196, (S)-1-(5-(5-(pyridin-3-yl)-1H-pyrazolo[3,4-c]pyridin-3-yl)pyridin-2-yl)piperidin-3-amine], affinity was put at a Ki of 0.774 nM.

`NC1CCCN(c2cccc(-c3n[nH]c4cnc(-c5cccnc5)cc34)n2)CC1` (stereo not shown) [Example 197, 1-(6-(5-(pyridin-3-yl)-1H-pyrazolo[3,4-c]pyridin-3-yl)pyridin-2-yl)azepan-4-amine] showed a Ki of 0.038 nM.

The compound `Fc1ccccc1-c1n[nH]c2cnc(-c3cnccc3OC3CNC3)cc12` [Example 198, 5-(4-(azetidin-3-yloxy)pyridin-3-yl)-3-(2-fluorophenyl)-1H-pyrazolo[3,4-c]pyridine] showed a Ki of 3.12 nM.

`Cn1cc(-c2cc3c(-c4cccc(NC5CCNCC5)n4)n[nH]c3cn2)cn1` [Example 200, 6-(5-(1-methyl-1H-pyrazol-4-yl)-1H-pyrazolo[3,4-c]pyridin-3-yl)-N-(piperidin-4-yl)pyridin-2-amine] gave a Ki of 0.092 nM.

On to `N[C@H]1CCN(c2ccc(-c3n[nH]c4cnc(-c5cccnc5)cc34)cn2)C1` [Example 202, (S)-1-(5-(5-(pyridin-3-yl)-1H-pyrazolo[3,4-c]pyridin-3-yl)pyridin-2-yl)pyrrolidin-3-amine], for which the affinity, expressed as Ki, was 1 nM.

For the compound `N[C@@H]1CCN(c2ccc(-c3n[nH]c4cnc(-c5cccnc5)cc34)cn2)C1` [Example 203, (R)-1-(5-(5-(pyridin-3-yl)-1H-pyrazolo[3,4-c]pyridin-3-yl)pyridin-2-yl)pyrrolidin-3-amine], the Ki is 1.02 nM.

`c1ccc(-c2n[nH]c3cnc(-c4cccnc4)cc23)nc1` [Example 204, 3-(pyridin-2-yl)-5-(pyridin-3-yl)-1H-pyrazolo[3,4-c]pyridine] gave a Ki of 11.6 nM.

In turn, `Cc1ccc(F)c(-c2n[nH]c3cnc(-c4cnn(C)c4)cc23)c1` [Example 205, 3-(2-fluoro-5-methylphenyl)-5-(1-methyl-1H-pyrazol-4-yl)-1H-pyrazolo[3,4-c]pyridine] registered a Ki of 6.08 nM.

On to `Fc1cncc(-c2cc3c(-c4cccc(N5CCNCC5)n4)n[nH]c3cn2)c1` [Example 208, 5-(5-fluoropyridin-3-yl)-3-(6-(piperazin-1-yl)pyridin-2-yl)-1H-pyrazolo[3,4-c]pyridine], for which the Ki turned out to be 0.284 nM.

`Fc1ccccc1-c1n[nH]c2cnc(-c3cnccc3OC[C@@H]3CCNC3)cc12` [Example 209, (R)-3-(2-fluorophenyl)-5-(4-(pyrrolidin-3-ylmethoxy)pyridin-3-yl)-1H-pyrazolo[3,4-c]pyridine] came in with a Ki of 0.189 nM.

On to `Fc1ccccc1-c1n[nH]c2cnc(-c3cnccc3OC[C@H]3CCNC3)cc12` [Example 211, (S)-3-(2-fluorophenyl)-5-(4-(pyrrolidin-3-ylmethoxy)pyridin-3-yl)-1H-pyrazolo[3,4-c]pyridine], for which the Ki was found to be 1.28 nM.

In turn, `c1cc(-c2n[nH]c3cnc(C4CCOC4)cc23)nc(N2CCNCC2)c1` (stereo not shown) [Example 212, 3-(6-(piperazin-1-yl)pyridin-2-yl)-5-(tetrahydrofuran-3-yl)-1H-pyrazolo[3,4-c]pyridine] displayed a Ki of 8.48 nM.

As to `c1ccc(-c2n[nH]c3cnc(-c4cnccn4)cc23)cc1` [Example 214, 3-phenyl-5-(pyrazin-2-yl)-1H-pyrazolo[3,4-c]pyridine], the Ki came to 41.6 nM.

As to `c1cncc(-c2cc3c(-c4ccn(C5CCNCC5)n4)n[nH]c3cn2)c1` [Example 215, 3-(1-(piperidin-4-yl)-1H-pyrazol-3-yl)-5-(pyridin-3-yl)-1H-pyrazolo[3,4-c]pyridine], the Ki was 0.313 nM.

For `Cn1cc(-c2cc3c(-c4cccc(N5C[C@@H]6C[C@H]5CN6)n4)n[nH]c3cn2)cn1` [Example 216, 3-(6-((1S,4S)-2,5-diazabicyclo[2.2.1]heptan-2-yl)pyridin-2-yl)-5-(1-methyl-1H-pyrazol-4-yl)-1H-pyrazolo[3,4-c]pyridine], the affinity, expressed as Ki, was 0.126 nM.

`Fc1ccccc1-c1n[nH]c2cnc(-c3cnc[nH]3)cc12` [Example 218, 3-(2-fluorophenyl)-5-(1H-imidazol-5-yl)-1H-pyrazolo[3,4-c]pyridine] gave a Ki of 30.9 nM.

Regarding `Fc1ccccc1-c1n[nH]c2cnc(-c3cnccn3)cc12` [Example 219, 3-(2-fluorophenyl)-5-(pyrazin-2-yl)-1H-pyrazolo[3,4-c]pyridine], the affinity, expressed as Ki, was 33.5 nM.

`Fc1ccccc1-c1n[nH]c2cnc(-c3cnccc3OCCC3CCNCC3)cc12` [Example 220, 3-(2-fluorophenyl)-5-(4-(2-(piperidin-4-yl)ethoxy)pyridin-3-yl)-1H-pyrazolo[3,4-c]pyridine] returned a Ki of 0.379 nM.

In turn, `Cn1cc(-c2n[nH]c3cnc(-c4cncc(N5CCC(N)CC5)n4)cc23)cn1` [Example 221, 1-(6-(3-(1-methyl-1H-pyrazol-4-yl)-1H-pyrazolo[3,4-c]pyridin-5-yl)pyrazin-2-yl)piperidin-4-amine] yielded an inhibitory constant (Ki) of 0.096 nM.

Compound `Cn1cc(-c2cc3c(-c4cccc(N5CCC[C@@H](N)C5)c4)n[nH]c3cn2)cn1` [Example 222, (R)-1-(3-(5-(1-methyl-1H-pyrazol-4-yl)-1H-pyrazolo[3,4-c]pyridin-3-yl)phenyl)piperidin-3-amine] displayed a Ki of 0.387 nM.
